Experimental data as given in patent US20180153826A1, “MATERIALS AND METHODS FOR THE TREATMENT OF CYSTIC FIBROSIS” (UNIVERSITY OF FLORIDA RESEARCH FOUNDATION, INC., priority 2015, published 2018).

Legend:
[1] = tested on: colon mucosa of CaSR null mice; assay: HCO3^− secretion in colon mucosa of CaSR null (CaSR^−/−) mice; set-up: species or system mouse
Procedure: FIGS. 13A-13F. […] Colonic mucosa from wild type (CaSR^+/+) (A-C) and knockout (CaSR^-/-) mice (D-F) were isolated and treated, and activities of the three HCO3^- transporters assayed as in rats. Data are means±SEM of 4-6 experiments. *p<0.05 vs. control (1st bar). Experiments were performed using non-fasting male Sprague-Dawley rats and C57BL/6 mice. Rats weighting 100-400 g were obtained from Charles River Laboratories. Mice lacking CaSR expression in intestinal epithelial cells (CaSR^-/-) and their CaSR^+/+ littermates were bred and maintained. CaSR^-/- mice were generated as previously described. Briefly, CaSR flox/flox mice were bred with transgenic mice expressing Cre Recombinase under the control of the villin 1 promoter and genotyped prior to all experiments after an approximate 10-12 generations. Mice were used at 5-10 weeks of age. Animals were fed and maintained on regular chow (Harlan) with free access to water before sacrifice. Animals were sacrificed with standard CO2 inhalation followed by cervical dislocation. The colons were isolated, cut open along the mesenteric border into a flat sheet, and flushed with ice-cold Ringer solutions. Mucosa from the distal colon were carefully hand-stripped off of serosal, muscular and submucosal layers as described and a pair of adjacent mucosal segments were incised and mounted into Ussing chambers. […]

[2] = tested on: CFTR-mediated and non CFTR-mediated HCO3^− secretion; assay: Isc and pH stat HCO3^− secretion with/without lumen Cl^−, CFTR inhibitors or DIDS (FIGS. 5, 6)
Text: FIG. 3. Experimental approach 1: The Ussing chamber pH-stat set up used to monitor and measure HCO3^- secretion by colonic mucosa. FIG. 4. Experimental Approach 2: Measurement of HCO3^- secretion by colonic mucosa in the presence of apical NPPB/Glibenclamide. FIGS. 5A-5F. Activation of CaSR by […] inhibits CFTR-mediated HCO3^- secretion (JHCO3) and ISC but stimulates non CFTR-mediated HCO3^- secretion (JHCO3) and Isc. Physiological approach assayed with, versus without, lumen Cl^-. FIGS. 6A-6F. Activation of CaSR by […] inhibits CFTR-mediated HCO3^- secretion (JHCO3) and ISC but stimulates CFTR-independent HCO3^- secretion (JHCO3) and Isc. Pharmacological approach assayed with, and without, CFTR transporter inhibitors or AE inhibitor DIDS.

SMILES: COc1cccc([C@@H](C)NCCCc2ccccc2Cl)c1.Cl [R568, 2-Chloro-N-[(1R)-1-(3-methoxyphenyl)ethyl]-benzenepropanamine hydrochloride]
- R568 effects on Cl^−-, SCFA- and cAMP-dependent HCO3^− secretion [1]: abolished
- HCO3^− secretion (pH stat) ([2]; absence of lumen Cl^−): net inhibition
- phase I Isc stimulation induced by R568 ([2]; absence of lumen Cl^−): abolished
- phase II Isc inhibition ([2]; absence of lumen Cl^−): remained unchanged or slightly reduced
- HCO3^− secretion (pH stat) ([2]; presence of lumen Cl^−): net stimulation
- Isc response ([2]; presence of lumen Cl^−): two-phase response
